pIC50: −log10 of the molar value.
Tests used:
MCF-7 = assay: Antiproliferative activity, SRB assay; assay type: cell-based, human; conditions: Homo sapiens, MCF7, 72 h, 72 h, triplicate, mean ± SD; read-out: IC50 ± SD, MCF-7;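 note: proliferation of MCF7 cells quantified by sulforhodamine B staining, with optical density read at 560 nm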
U937 = assay: Antiproliferative activity, CCK-8 assay; assay type: cell-based; conditions: Homo sapiens, U-937; 72 h, triplicate, mean ± SD; read-out: IC50 ± SD, U937
Method: (§1) The synthesized compounds were first evaluated for their cytotoxic effect on MCF-7 (human breast adenocarcinoma), U937 (histiocytic lymphoma cancer), HepG2 (human liver cancer) cells, and MGC-803 (human gastric cancer) using the SRB and CCK-8 assay. As reference compounds CA-4 and colchicine were included.
(§2) The primary tumor cells were purchased from a professional biomedical company. First, the primary tumor cells were incubated in a cell culture incubator at 37°C and 5% CO2. After the cell fusion reached 85%–95%, subculture was performed, and the tumor cells obtained at this time were used for subsequent related experiments. The CCK-8 method was used to inhibit the proliferation of U937 tumor cells, and the SRB method was used to inhibit the proliferation of MCF7 and HepG2 tumor cells.
(§3) The cells in the logarithmic growth phase were seeded in a 96-well plate at 8,000/well, and the drug-containing medium and cell suspension were added to the well. Three wells were added with the blank medium as the blank group. The 96-well plate was incubated for 72 h in a 37°C, 5% CO2 incubator. The 10 μl of CCK-8 dye solution was added to each well, and the incubation continued for 3–4 h.

[1] = tested on: MCF-7, U937, HepG2 and MGC-803 cells; assay: Antiproliferative activity, cancer cell panel (text summaries); assay type: cell-based, human; conditions: Homo sapiens; U937, MCF-7, HepG2, MGC-803; read-out: IC50 against four cancer cell lines
Method: as §1, §2
(§4) Cells were distributed into 96-well plates with a density of 3 × 10^3–4 × 10^3 cells per well and incubated for 24 h in a 5% CO2 incubator at 37°C, followed by treatment with study compounds at different concentrations at 37°C for 72 h. One hundred microliters of 10% (w/v) trichloroacetic acid was added to each well, fixed at 4°C for 30 min, and dried at 65°C. Then 100 μl of 0.4% SRB was added to each well and stained on a shaker for 20 min at room temperature. The excess dye solution was washed with newly prepared 1% glacial acetic acid and dried at 65°C. One hundred fifty microliters of 10 mM unbuffered Trisbase was added to each well of the plate and shaken for 5 min to dissolve the dye. The microplate reader measured the optical density (OD) at a wavelength of 560 nm.
as §3

HepG2 = assay: Antiproliferative activity, SRB assay; assay type: cell-based, human; conditions: Homo sapiens, HepG2; 72 h, triplicate, mean ± SD; read-out: IC50 ± SD, HepG2
Method: as §1, §2, §4

MGC-803 = assay: Antiproliferative activity (SRB and CCK-8 assay); assay type: cell-based; conditions: Homo sapiens, triplicate, mean ± SD, read-out: IC50 ± SD, MGC-803
Excerpt: as §1

pIC50 (MCF-7)	melting point	pIC50 (U937)	pIC50 [1]	pIC50 (HepG2)	pIC50 (MGC-803)	Compound
< 4.70	221.7 to 223.6 °C	< 4.70	< 4.70	< 4.70	< 4.70	COC(=O)c1cccc2[nH]cc(/C=C/C(=O)c3cc(OC)c(OC)c(OC)c3)c12 [Compound 6d, methyl(E)-3[3-oxo-3-(3,4,5-trimethoxyphenyl)prop-1-en-1-yl]-1H-indole-4-carboxylate]
< 4.70	218.7 to 220.3 °C	< 4.70	< 4.70	< 4.70	< 4.70	COC(=O)c1ccc2[nH]cc(/C=C/C(=O)c3cc(OC)c(OC)c(OC)c3)c2c1 [Compound 6e, methyl(E)-3[3-oxo-3-(3,4,5-trimethoxyphenyl)prop-1-en-1-yl]-1H-indole-5-carboxylate]

From PMC8652888, “Angiogenesis, Anti-Tumor, and Anti-Metastatic Activity of Novel α-Substituted Hetero-Aromatic Chalcone Hybrids as Inhibitors of Microtubule Polymerization” (Frontiers in Chemistry, 2021)
